Results on 17 compounds are retold here after ChEMBL document CHEMBL1146152, “5-(1H-Benzimidazol-1-yl)-3-alkoxy-2-thiophenecarbonitriles as potent, selective, inhibitors of IKK-epsilon kinase” (Bioorg Med Chem Lett, 2006).

≈ marks a conversion by molar mass, not a printed value.

In data set [1] the target is T1, Inhibitor of nuclear factor kappa-B kinase subunit epsilon (Homo sapiens, UniProt Q14164).
T1 sequence (Q14164 whole entry): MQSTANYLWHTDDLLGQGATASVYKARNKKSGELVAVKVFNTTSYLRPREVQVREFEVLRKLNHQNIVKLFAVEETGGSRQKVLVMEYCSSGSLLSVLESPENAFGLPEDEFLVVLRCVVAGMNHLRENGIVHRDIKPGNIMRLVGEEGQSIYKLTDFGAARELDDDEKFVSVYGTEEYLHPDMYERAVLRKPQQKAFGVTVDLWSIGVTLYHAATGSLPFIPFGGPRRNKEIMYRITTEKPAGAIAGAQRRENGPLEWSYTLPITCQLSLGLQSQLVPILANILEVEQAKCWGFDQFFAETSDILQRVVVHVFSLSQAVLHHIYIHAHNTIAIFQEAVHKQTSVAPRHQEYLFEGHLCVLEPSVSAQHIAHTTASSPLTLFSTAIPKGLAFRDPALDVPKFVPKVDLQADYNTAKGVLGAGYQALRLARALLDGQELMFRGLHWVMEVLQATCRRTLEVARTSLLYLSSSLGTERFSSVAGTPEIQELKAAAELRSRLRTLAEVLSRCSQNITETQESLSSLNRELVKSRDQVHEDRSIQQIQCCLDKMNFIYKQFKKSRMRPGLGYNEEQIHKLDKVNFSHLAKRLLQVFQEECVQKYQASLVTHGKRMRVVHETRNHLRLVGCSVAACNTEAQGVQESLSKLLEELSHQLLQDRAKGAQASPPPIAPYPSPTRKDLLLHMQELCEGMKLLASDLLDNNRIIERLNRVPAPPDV
Put plainly: Inhibition of human recombinant IKKepsilon by TR-FRET assay.

The target in the next data set is Cytochrome P450 2D6 (Homo sapiens, UniProt P10635). Briefly: Inhibition of CYP2D6. The data set is classed as ADME.
Cytochrome P450 2D6, sequence (P10635 whole entry): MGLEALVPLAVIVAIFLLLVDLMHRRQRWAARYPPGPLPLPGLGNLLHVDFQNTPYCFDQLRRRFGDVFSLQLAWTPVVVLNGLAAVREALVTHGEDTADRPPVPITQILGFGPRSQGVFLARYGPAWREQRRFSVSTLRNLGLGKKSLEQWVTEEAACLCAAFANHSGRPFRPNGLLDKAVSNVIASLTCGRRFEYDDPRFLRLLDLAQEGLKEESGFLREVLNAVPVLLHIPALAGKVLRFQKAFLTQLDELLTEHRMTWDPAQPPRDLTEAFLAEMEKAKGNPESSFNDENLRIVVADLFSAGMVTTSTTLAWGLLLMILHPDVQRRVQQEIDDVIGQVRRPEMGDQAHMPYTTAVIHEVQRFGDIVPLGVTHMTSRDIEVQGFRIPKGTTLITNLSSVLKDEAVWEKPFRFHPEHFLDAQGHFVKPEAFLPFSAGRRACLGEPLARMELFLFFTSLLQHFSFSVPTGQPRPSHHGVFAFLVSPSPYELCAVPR
The target of a further data set is T2, Cytochrome P450 1A2 (Homo sapiens, UniProt P05177).
T2 sequence (P05177 whole entry): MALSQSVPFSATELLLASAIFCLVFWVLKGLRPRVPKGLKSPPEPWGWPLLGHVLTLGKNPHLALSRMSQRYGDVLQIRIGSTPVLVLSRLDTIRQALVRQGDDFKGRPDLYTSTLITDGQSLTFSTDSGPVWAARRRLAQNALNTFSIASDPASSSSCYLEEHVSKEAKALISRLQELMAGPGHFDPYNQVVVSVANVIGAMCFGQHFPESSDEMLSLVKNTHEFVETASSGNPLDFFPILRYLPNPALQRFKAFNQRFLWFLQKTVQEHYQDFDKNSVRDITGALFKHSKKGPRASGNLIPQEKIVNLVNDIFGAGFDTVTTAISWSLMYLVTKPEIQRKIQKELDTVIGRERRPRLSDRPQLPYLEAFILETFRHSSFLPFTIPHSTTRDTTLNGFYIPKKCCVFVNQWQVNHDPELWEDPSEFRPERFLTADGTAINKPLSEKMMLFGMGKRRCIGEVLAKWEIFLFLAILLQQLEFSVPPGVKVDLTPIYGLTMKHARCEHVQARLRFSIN
Briefly: Inhibition of CYP1A2. The data set is classed as ADME.

The target of data set [2] is Mitogen-activated protein kinase 10 (Homo sapiens, UniProt P53779). Briefly: Inhibition of JNK3.
Mitogen-activated protein kinase 10, sequence (P53779 whole entry): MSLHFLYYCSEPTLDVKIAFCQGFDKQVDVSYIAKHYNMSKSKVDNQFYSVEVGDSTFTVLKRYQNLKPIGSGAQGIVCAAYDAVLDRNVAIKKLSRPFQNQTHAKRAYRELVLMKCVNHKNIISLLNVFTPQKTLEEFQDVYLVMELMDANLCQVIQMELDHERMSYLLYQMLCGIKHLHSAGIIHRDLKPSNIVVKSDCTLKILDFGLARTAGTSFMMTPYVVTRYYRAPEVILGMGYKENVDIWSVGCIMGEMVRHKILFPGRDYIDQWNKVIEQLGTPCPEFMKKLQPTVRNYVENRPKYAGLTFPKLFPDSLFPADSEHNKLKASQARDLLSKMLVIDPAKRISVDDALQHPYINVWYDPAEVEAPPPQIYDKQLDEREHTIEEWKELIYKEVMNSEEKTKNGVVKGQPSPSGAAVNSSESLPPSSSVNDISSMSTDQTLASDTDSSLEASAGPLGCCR
For data set [3], the target named is Receptor tyrosine-protein kinase erbB-2 (Homo sapiens, UniProt P04626). Put plainly: Inhibition of ErB2.
Receptor tyrosine-protein kinase erbB-2, sequence (P04626 whole entry): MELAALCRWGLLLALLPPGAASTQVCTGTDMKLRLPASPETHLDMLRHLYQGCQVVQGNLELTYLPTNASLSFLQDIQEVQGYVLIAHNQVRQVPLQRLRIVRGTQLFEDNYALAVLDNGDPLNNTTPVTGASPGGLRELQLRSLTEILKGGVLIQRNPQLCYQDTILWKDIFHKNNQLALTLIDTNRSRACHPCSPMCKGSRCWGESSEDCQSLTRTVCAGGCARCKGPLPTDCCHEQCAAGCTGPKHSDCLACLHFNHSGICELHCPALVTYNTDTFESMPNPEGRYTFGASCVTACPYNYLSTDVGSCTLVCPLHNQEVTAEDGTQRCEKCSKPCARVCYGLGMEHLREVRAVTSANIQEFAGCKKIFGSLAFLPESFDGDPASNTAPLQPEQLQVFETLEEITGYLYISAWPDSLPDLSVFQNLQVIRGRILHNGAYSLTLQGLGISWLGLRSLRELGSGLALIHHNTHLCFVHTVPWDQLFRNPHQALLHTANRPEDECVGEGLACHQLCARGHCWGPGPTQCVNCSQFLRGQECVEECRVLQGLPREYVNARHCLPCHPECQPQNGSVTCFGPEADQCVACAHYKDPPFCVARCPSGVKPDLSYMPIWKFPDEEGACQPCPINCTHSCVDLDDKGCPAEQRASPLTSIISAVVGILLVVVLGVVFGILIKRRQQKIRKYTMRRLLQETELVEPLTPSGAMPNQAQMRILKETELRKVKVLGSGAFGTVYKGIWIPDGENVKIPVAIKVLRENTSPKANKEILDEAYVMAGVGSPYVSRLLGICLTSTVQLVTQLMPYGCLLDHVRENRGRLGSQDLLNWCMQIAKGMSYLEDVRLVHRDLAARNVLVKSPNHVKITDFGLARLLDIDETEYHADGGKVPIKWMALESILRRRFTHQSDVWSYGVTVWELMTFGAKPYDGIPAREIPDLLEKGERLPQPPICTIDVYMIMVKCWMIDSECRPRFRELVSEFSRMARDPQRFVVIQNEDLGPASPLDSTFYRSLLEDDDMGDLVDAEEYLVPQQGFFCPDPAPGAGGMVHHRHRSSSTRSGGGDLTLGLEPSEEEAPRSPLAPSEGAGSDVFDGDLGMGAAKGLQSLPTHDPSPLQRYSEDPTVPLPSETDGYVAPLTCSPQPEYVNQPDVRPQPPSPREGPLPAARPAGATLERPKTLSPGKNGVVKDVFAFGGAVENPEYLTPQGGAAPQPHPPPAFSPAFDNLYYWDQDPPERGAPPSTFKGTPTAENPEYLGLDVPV
The nature of data set [4]: Aqueous solubility of the compound. Format: physicochemical. Particulars: buffer.
The target of data set [5] is Mitogen-activated protein kinase 11 (Homo sapiens, UniProt Q15759). Briefly: Inhibition of p38beta.
Mitogen-activated protein kinase 11, sequence (Q15759 whole entry): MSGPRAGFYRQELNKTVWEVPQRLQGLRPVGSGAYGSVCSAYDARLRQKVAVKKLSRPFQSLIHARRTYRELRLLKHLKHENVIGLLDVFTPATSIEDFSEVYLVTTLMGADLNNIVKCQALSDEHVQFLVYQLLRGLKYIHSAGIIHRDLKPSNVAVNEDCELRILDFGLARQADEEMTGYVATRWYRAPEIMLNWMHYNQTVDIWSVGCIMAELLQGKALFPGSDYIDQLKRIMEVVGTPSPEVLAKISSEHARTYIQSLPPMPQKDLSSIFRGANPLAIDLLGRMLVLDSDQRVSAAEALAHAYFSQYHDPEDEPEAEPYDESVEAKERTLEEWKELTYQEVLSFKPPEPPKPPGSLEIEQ
In data set [6] the target is Serine/threonine-protein kinase PLK1 (Homo sapiens, UniProt P53350). Briefly: Inhibition of PLK1.
Serine/threonine-protein kinase PLK1, sequence (P53350 whole entry): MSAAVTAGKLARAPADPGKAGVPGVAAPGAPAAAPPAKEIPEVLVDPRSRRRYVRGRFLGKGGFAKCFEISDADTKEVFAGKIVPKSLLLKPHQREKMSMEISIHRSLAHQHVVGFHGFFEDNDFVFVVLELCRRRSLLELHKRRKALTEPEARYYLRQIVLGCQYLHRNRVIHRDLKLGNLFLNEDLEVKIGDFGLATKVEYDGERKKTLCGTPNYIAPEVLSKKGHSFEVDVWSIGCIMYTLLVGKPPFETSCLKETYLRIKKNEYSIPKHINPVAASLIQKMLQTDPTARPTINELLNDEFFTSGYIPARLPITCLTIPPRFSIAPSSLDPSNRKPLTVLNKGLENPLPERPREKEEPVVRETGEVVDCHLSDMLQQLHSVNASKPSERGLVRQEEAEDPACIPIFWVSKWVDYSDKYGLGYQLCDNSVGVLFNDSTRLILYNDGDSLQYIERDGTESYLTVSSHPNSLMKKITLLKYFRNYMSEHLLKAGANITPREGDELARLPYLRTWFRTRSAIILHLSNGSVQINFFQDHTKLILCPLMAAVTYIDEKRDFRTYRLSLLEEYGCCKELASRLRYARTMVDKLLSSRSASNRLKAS
The target of data set [7] is Mitogen-activated protein kinase 14 (Homo sapiens, UniProt Q16539). Briefly: Inhibition of p38alpha.
Mitogen-activated protein kinase 14, sequence (Q16539 whole entry): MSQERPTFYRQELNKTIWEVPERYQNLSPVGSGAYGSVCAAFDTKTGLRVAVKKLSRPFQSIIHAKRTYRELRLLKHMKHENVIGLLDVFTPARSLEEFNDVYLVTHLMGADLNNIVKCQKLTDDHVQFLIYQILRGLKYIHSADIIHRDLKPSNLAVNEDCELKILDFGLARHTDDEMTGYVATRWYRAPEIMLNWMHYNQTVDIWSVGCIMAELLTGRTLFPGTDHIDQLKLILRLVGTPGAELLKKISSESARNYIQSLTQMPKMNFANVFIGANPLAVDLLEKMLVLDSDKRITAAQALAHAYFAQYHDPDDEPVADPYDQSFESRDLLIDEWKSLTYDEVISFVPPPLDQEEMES
Another data set addresses Cytochrome P450 3A4 (Homo sapiens, UniProt P08684). Briefly: Inhibition of CYP3A4. The data set is classed as ADME.
A further data set deals with Cytochrome P450 2C9 (Homo sapiens, UniProt P11712). Put plainly: Inhibition of CYP2C9. The data set is classed as ADME.
Cytochrome P450 2C9, sequence (P11712 whole entry): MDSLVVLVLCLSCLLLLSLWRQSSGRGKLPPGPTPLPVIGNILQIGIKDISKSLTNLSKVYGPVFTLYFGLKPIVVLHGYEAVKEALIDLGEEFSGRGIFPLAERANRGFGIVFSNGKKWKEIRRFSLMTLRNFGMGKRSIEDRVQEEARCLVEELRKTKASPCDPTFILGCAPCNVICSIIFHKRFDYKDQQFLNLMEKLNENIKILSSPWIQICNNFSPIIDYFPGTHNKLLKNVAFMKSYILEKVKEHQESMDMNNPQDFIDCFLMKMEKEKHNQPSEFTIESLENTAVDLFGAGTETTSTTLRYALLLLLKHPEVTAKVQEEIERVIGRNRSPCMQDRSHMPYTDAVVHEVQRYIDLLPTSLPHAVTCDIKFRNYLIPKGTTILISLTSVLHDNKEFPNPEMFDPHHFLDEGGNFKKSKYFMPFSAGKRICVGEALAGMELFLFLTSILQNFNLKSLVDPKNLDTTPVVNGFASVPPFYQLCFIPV
Data set [8] addresses Glycogen synthase kinase-3 (Homo sapiens, UniProt P49840+P49841). Put plainly: Inhibition of GSK3. The data set is classed as protein assay.
The target of another data set is T3, TGF-beta receptor type-1 (Homo sapiens, UniProt P36897).
T3 sequence (P36897 whole entry): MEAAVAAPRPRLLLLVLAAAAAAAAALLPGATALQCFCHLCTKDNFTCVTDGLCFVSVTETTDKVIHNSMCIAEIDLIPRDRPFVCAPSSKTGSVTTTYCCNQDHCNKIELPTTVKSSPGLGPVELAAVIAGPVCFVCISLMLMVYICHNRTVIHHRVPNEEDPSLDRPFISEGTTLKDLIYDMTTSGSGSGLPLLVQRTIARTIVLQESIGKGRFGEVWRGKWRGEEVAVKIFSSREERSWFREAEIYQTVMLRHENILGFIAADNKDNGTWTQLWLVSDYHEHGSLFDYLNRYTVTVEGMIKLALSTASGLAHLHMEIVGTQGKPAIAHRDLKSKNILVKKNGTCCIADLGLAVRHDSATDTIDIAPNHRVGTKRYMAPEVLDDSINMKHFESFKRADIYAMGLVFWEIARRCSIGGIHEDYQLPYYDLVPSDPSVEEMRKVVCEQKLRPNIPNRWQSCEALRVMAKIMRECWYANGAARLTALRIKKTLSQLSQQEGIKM
Briefly: Inhibition of Alk5.

Data set [9] has as its target Epidermal growth factor receptor (Homo sapiens, UniProt P00533). Briefly: Inhibition of EGFR.

Cytochrome P450 3A4, sequence (P08684 whole entry): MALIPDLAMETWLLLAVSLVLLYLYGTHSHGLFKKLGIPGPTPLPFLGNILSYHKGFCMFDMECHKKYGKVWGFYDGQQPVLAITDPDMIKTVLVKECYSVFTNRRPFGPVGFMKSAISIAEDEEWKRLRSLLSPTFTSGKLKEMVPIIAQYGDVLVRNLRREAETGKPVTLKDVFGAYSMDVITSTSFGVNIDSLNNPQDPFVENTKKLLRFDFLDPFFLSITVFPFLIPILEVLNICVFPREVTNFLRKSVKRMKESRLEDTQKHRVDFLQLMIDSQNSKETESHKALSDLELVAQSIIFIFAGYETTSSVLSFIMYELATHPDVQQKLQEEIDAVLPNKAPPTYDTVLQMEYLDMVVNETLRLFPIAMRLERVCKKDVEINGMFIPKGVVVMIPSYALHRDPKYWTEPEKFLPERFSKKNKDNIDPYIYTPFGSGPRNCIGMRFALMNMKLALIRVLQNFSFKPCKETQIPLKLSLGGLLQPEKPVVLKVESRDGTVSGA

`COc1cc2c(cc1OCCN1CCOCC1)ncn2-c1cc(OCc2ccccc2C(F)(F)F)c(C#N)s1`: the IC50 in data set [1] was 0.0501 µM.
Same read-out and setting: then `N#Cc1sc(-n2cnc3ccccc32)cc1OCc1ccccc1`, with 1 µM; and `COc1cc2ncn(-c3cc(O)c(C#N)s3)c2cc1OC`, with 2.51 µM.
In the case of `COc1cc2ncn(-c3cc(OCc4ccccc4S(C)(=O)=O)c(C#N)s3)c2cc1OC` [GSK-319347A], the IC50 at Cytochrome P450 2D6 was greater than 50.1 µM; in [1], 0.0398 µM; at Cytochrome P450 1A2, greater than 50.1 µM; in [2], greater than 15.8 µM; in data set [3] it was greater than 10 µM; in data set [5] it was greater than 15.8 µM. Moreover, the IC50 in data set [6] is 0.794 µM; in [7] it was greater than 15.8 µM; on Cytochrome P450 3A4, greater than 50.1 µM; at Cytochrome P450 2C9 it was greater than 50.1 µM; against TGF-beta receptor type-1, greater than 5.01 µM; in [9], greater than 10 µM. Moreover, the solubility in [4] is 60 µM (≈ 28.2 µg/mL). In addition, the Log IC50 in [8] is greater than -4.8.
Consider `COc1cc2ncn(-c3cc(OCCN4CCCCC4)c(C#N)s3)c2cc1OC`, for which, in data set [1], the IC50 is 5.01 µM.
Still for that read-out and setting: then `COc1cc2ncn(-c3cc(OCc4ccc(C(N)=O)cc4)c(C#N)s3)c2cc1OC`, with 12.6 µM.
For `COc1cc2ncn(-c3cc(OCc4ccccc4)c(C(=O)O)s3)c2cc1OC`, the IC50 in [1] is greater than 15.8 µM; in data set [6] it was 0.631 µM.
As to `COc1cc2ncn(-c3cc(OCC4CC4)c(C#N)s3)c2cc1OC`, the IC50 in data set [1] was 3.16 µM.
The same measure, in the same setting: the result for `COc1cc2ncn(-c3cc(O[C@H](C)c4ccccc4C(F)(F)F)c(C#N)s3)c2cc1OC` reads 3.98 µM.
Take `COc1cc2ncn(-c3cc(OCC4CCCO4)c(C(N)=O)s3)c2cc1OC` (configuration not stated): in data set [6], 0.251 µM corresponded to half-maximal inhibition (IC50).
For the compound `COc1cc2ncn(-c3cc(OCCN4CCOCC4)c(C#N)s3)c2cc1OC`, the IC50 in data set [1] was 1.58 µM.
With `COc1cc2ncn(-c3cc(O[C@H](C)c4ccccc4Cl)c(C(N)=O)s3)c2cc1OC` [GSK-237701A], the IC50 in data set [1] was 20 µM.
For the compound `COc1cc2ncn(-c3cc(OCc4ccccc4C(F)(F)F)c(C#N)s3)c2cc1OC`, in [1], the 50% inhibitory concentration (IC50) was 0.251 µM.
Turning to `COc1cc2ncn(-c3cc(OCC4CCCO4)c(C#N)s3)c2cc1OC` (configuration not stated), the IC50 in data set [1] was 0.794 µM.
`COc1cc2ncn(-c3cc(OCc4ccc(S(C)(=O)=O)cc4)c(C(N)=O)s3)c2cc1OC` gave an IC50 in data set [6] of 0.126 µM.
For the compound `COc1cc2ncn(-c3cc(OCc4ccc(S(C)(=O)=O)cc4)c(C#N)s3)c2cc1OC`, the IC50 is 5.01 µM in data set [1] and 0.631 µM in data set [6].
Turning to `COc1cc2c(cc1OCCCO)ncn2-c1cc(OCc2ccccc2C(F)(F)F)c(C#N)s1`, the IC50 in data set [1] was 0.0251 µM.

Usually IC50 stands for the concentration that gives 50% inhibition. By solubility is commonly meant how much of the substance goes into solution per volume. A higher solubility goes with a readily soluble substance.
